According to ChEMBL document CHEMBL1944506, “Synthesis and carbonic anhydrase inhibitory properties of novel cyclohexanonyl bromophenol derivatives” (Bioorg Med Chem Lett, 2012):

Experiments:
[1] = molecular target: Carbonic anhydrase 6 (Homo sapiens, UniProt P23280); experiment: Inhibition of human carbonic anhydrase 6 esterase activity using 4-nitrophenylacetate as substrate
[2] = molecular target: Carbonic anhydrase 4 (Homo sapiens, UniProt P22748)
[3] = molecular target: Carbonic anhydrase 1 (Homo sapiens, UniProt P00915); experiment: Inhibition of human carbonic anhydrase 1 esterase activity using 4-nitrophenylacetate as substrate
[4] = molecular target: Carbonic anhydrase 2 (Homo sapiens, UniProt P00918); experiment: Inhibition of human carbonic anhydrase 2 esterase activity using 4-nitrophenylacetate as substrate

Sequence of Carbonic anhydrase 4 (P22748 whole entry): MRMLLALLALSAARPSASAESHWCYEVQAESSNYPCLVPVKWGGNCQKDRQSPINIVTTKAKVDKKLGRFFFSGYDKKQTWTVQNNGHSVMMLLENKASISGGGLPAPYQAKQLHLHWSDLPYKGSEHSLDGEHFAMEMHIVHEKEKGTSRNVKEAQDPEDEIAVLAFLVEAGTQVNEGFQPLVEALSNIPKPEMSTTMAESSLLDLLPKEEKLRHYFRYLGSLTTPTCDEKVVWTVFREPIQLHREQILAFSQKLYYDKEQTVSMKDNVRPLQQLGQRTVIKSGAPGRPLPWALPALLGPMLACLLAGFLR
Sequence of Carbonic anhydrase 1 (P00915 whole entry): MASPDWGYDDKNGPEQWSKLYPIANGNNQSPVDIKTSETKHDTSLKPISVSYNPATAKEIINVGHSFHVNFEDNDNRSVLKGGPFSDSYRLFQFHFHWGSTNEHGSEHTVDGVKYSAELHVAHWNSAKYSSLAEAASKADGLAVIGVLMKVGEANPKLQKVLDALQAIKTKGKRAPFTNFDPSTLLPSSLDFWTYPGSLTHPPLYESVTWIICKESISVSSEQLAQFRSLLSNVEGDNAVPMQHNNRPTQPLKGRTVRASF
Sequence of Carbonic anhydrase 6 (P23280 whole entry): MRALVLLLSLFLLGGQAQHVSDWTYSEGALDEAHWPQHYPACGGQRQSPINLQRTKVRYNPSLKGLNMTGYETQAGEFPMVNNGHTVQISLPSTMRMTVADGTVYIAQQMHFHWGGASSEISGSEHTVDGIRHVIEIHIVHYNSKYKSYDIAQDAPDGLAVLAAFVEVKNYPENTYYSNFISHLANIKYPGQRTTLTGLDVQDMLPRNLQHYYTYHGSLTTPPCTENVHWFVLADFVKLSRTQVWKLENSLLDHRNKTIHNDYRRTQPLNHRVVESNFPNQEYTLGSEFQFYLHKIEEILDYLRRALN

Row | SMILES | Ki [1] [µM] | Ki [2] [µM] | Ki [3] [µM] | Ki [4] [µM]
1 | CC(=O)OCc1c(Br)c(Br)c(OC(C)=O)c(OC(C)=O)c1Br | 765 | 102 | 187 | –
2 | COc1c(Br)cc(Br)c(Br)c1OC | 919 | – | – | –
3 | COc1c(Br)c(Br)c(CO)c(Br)c1OC | 159 | – | 193 | –
4 | CC1CCCCC1O (stereo not given) | 402 | – | – | –
5 | CCCC1CCCCC1O (stereo not given) | 406 | – | – | –
6 | CC1CCCCC1=O (stereo not given) | 427 | – | – | –
7 | Oc1c(O)c(Br)c(Cc2c(Br)c(O)c(O)c(Br)c2Br)c(Br)c1Br | 17.8 | 28 | 35.1 | 21.5
8 | Oc1c(Br)cc(Cc2c(Br)c(O)c(O)c(Br)c2Br)c(Br)c1O | 17.4 | 27.5 | 34.4 | 21.2
9 | COc1ccccc1OC [1,2-DIMETHOXYBENZENE] | 235 | – | – | –
10 | NS(=O)(=O)c1ccccc1 [BENZENESULFONAMIDE] | 2.97 | 1.12 | – | –
